Test results taken from patent US20120244567A1, “HUMAN EMBRYONIC STEM CELLS FOR HIGH THROUGHOUT DRUG SCREENING” (BUCK INSTITUTE FOR RESEARCH ON AGING, priority 2009, published 2012).
Counter-ions that a name gives are not always drawn.

System: NSCs
Method: RNAs isolated from NSCs and neurons with and without drug treatments were hybridized to Illumina HumanRef-8 BeadChip (Illumina, Inc., San Diego, Calif., performed by Microarray core facility at the Burnham Institute for Medical Research). The Illumina array data were normalized by the quantile method, and then transformed log 2 ratio values for a zero mean for expression values of each gene across all samples. The statistical and bioinformatics analyses were conducted by using R and the bioconductor package (www.bioconductor.org). The gene set enrichment analysis was conducted using the GSEA software (www.broad.mit.edu/gsea).
The comparative results are then measured by a non-parametric, running sum statistic termed the enrichment score. The enrichment score significance is assessed by 1,000 permutation tests to compute the enrichment p-value.

SMILES: CCCCc1oc2ccccc2c1C(=O)c1cc(I)c(OCCN(CC)CC)c(I)c1 [Amiodarone Hydrochloride]
- Nes: Acetyltransferase Activity (Enriched In Untreated Nscs): −1.239
- Nes: Amine Transmembrane Transporter Activity (Enriched In Untreated Nscs): −0.9002
- Nes: Amino Acid Transmembrane Transporter Activity (Enriched In Untreated Nscs): −0.9455
- Nes: Atp Dependent Helicase Activity (Enriched In Untreated Nscs): −1.499
- Nes: Atp Dependent Rna Helicase Activity (Enriched In Untreated Nscs): −1.626
- Nes: Atpase Activity (Enriched In Untreated Nscs): −0.8253
- Nes: Atpase Activity Coupled (Enriched In Untreated Nscs): −1.068
- Nes: Atpase Activity Coupled To Movement Of Substances (Enriched In Untreated Nscs): −0.3743
- Nes: Atpase Activity Coupled To Transmembrane Movement Of Ions (Enriched In Untreated Nscs): −0.543
- Nes: Calcium Ion Binding (Enriched In Untreated Nscs): −1.593
- Nes: Carbohydrate Binding (Enriched In Untreated Nscs): −0.9729
- Nes: Carboxylic Acid Transmembrane Transporter Activity (Enriched In Untreated Nscs): −0.8373
- Nes: Cation Binding (Enriched In Untreated Nscs): −1.033
- Nes: Chromatin Binding (Enriched In Untreated Nscs): −1.015
- Nes: Cofactor Binding (Enriched In Untreated Nscs): −0.9326
- Nes: Cytokine Activity (Enriched In Untreated Nscs): −1.381
- Nes: Cytokine Binding (Enriched In Untreated Nscs): −1.174
- Nes: Damaged Dna Binding (Enriched In Untreated Nscs): −1.1681
- Nes: Dna Dependent Atpase Activity (Enriched In Untreated Nscs): −1.2
- Nes: Dna Helicase Activity (Enriched In Untreated Nscs): −0.5542
- Nes: Double Stranded Dna Binding (Enriched In Untreated Nscs): −0.4584
- Nes: Electron Carrier Activity (Enriched In Untreated Nscs): −0.6307
- Nes: Enzyme Activator Activity (Enriched In Untreated Nscs): −1.024
- Nes: Exopeptidase Activity (Enriched In Untreated Nscs): −0.915
- Nes: Glycosaminoglycan Binding (Enriched In Untreated Nscs): −0.9127
- Nes: Growth Factor Activity (Enriched In Untreated Nscs): −1.254
- Nes: Gtp Binding (Enriched In Untreated Nscs): −0.9695
- Nes: Gtpase Activity (Enriched In Untreated Nscs): −0.811
- Nes: Guanyl Nucleotide Binding (Enriched In Untreated Nscs): −1.265
- Nes: Helicase Activity (Enriched In Untreated Nscs): −1.374
- Nes: Heparin Binding (Enriched In Untreated Nscs): −1.015
- Nes: Hormone Activity (Enriched In Untreated Nscs): −1.196
- Nes: Hydrogen Ion Transmembrane Transporter Activity (Enriched In Untreated Nscs): −1.077
- Nes: Hydrolase Activity Acting On Acid Anhydrides (Enriched In Untreated Nscs): −0.9907
- Nes: Hydrolase Activity Acting On Acid Anhydrides Catalyzing Transmembrane Movement Of Substances (Enriched In Untreated Nscs): −0.4097
- Nes: Hydrolase Activity Acting On Carbon Nitrogen But Not Peptide Bonds (Enriched In Untreated Nscs): −0.7823
- Nes: Ion Binding (Enriched In Untreated Nscs): −1.044
- Nes: Kinase Activity (Enriched In Untreated Nscs): −0.9611
- Nes: Kinase Inhibitor Activity (Enriched In Untreated Nscs): −0.8002
- Nes: Kinase Regulator Activity (Enriched In Untreated Nscs): −0.9286
- Nes: Lipase Activity (Enriched In Untreated Nscs): −1.055
- Nes: Lipid Binding (Enriched In Untreated Nscs): −1.147
- Nes: Magnesium Ion Binding (Enriched In Untreated Nscs): −1.1144
- Nes: Metallopeptidase Activity (Enriched In Untreated Nscs): −1.06
- Nes: Microtubule Binding (Enriched In Untreated Nscs): −0.7143
- Nes: N Acetyltransferase Activity (Enriched In Untreated Nscs): −1.282
- Nes: N Acyltransferase Activity (Enriched In Untreated Nscs): −1.201
- Nes: Nucleobase Nucleoside Nucleotide Kinase Activity (Enriched In Untreated Nscs): −1.417
- Nes: Nucleoside Triphosphatase Activity (Enriched In Untreated Nscs): −0.8995
- Nes: Nucleotidyltransferase Activity (Enriched In Untreated Nscs): −0.6782
- Nes: Organic Acid Transmembrane Transporter Activity (Enriched In Untreated Nscs): −0.8193
- Nes: Oxidoreductase Activity Acting On Nadh Or Nadph (Enriched In Untreated Nscs): −1.092
- Nes: Oxidoreductase Activity Acting On The Ch Ch Group Of Donors (Enriched In Untreated Nscs): −1.2992
- Nes: Pattern Binding (Enriched In Untreated Nscs): −0.8999
- Nes: Peptide Binding (Enriched In Untreated Nscs): −0.9386
- Nes: Phospholipid Binding (Enriched In Untreated Nscs): −1.255
- Nes: Phosphotransferase Activity Alcohol Group As Acceptor (Enriched In Untreated Nscs): −0.929
- Nes: Phosphotransferase Activity Phosphate Group As Acceptor (Enriched In Untreated Nscs): −1.665
- Nes: Polysaccharide Binding (Enriched In Untreated Nscs): −0.9675
- Nes: Primary Active Transmembrane Transporter Activity (Enriched In Untreated Nscs): −0.3858
- Nes: Protein Dimerization Activity (Enriched In Untreated Nscs): −1.017
- Nes: Protein Heterodimerization Activity (Enriched In Untreated Nscs): −1.3399
- Nes: Protein Homodimerization Activity (Enriched In Untreated Nscs): −0.801
- Nes: Protein Kinase Inhibitor Activity (Enriched In Untreated Nscs): −0.7805
- Nes: Protein Kinase Regulator Activity (Enriched In Untreated Nscs): −0.8809
- Nes: Protein N Terminus Binding (Enriched In Untreated Nscs): −0.5542
- Nes: Pyrophosphatase Activity (Enriched In Untreated Nscs): −1.053
- Nes: Ras Gtpase Binding (Enriched In Untreated Nscs): −0.9567
- Nes: Receptor Activity (Enriched In Untreated Nscs): −1.044
- Nes: Receptor Binding (Enriched In Untreated Nscs): −1.0604
- Nes: Receptor Signaling Protein Serine Threonine Kinase Activity (Enriched In Untreated Nscs): −0.7954
- Nes: Rhodopsin Like Receptor Activity (Enriched In Untreated Nscs): −1.049
- Nes: Rna Binding (Enriched In Untreated Nscs): −0.6659
- Nes: Rna Dependent Atpase Activity (Enriched In Untreated Nscs): −1.8058
- Nes: Rna Helicase Activity (Enriched In Untreated Nscs): −1.68
- Nes: Signal Sequence Binding (Enriched In Untreated Nscs): −0.8286
- Nes: Structural Constituent Of Ribosome (Enriched In Untreated Nscs): −0.6343
- Nes: Transferase Activity Transferring Acyl Groups (Enriched In Untreated Nscs): −0.9146
- Nes: Transferase Activity Transferring Hexosyl Groups (Enriched In Untreated Nscs): −0.8814
- Nes: Transferase Activity Transferring Phosphorus Containing Groups (Enriched In Untreated Nscs): −1.002
- Nes: Transmembrane Receptor Activity (Enriched In Untreated Nscs): −1.132
- Nes: Tubulin Binding (Enriched In Untreated Nscs): −1.169
- Nes: Udp Glycosyltransferase Activity (Enriched In Untreated Nscs): −0.9459
- Nes: Acid Amino Acid Ligase Activity (enriched in treated NSCs): 0.7777
- Nes: Actin Binding (enriched in treated NSCs): 0.7455
- Nes: Actin Filament Binding (enriched in treated NSCs): 1.029
- Nes: Active Transmembrane Transporter Activity (enriched in treated NSCs): 0.8495
- Nes: Adenyl Nucleotide Binding (enriched in treated NSCs): 0.9485
- Nes: Adenyl Ribonucleotide Binding (enriched in treated NSCs): 0.9696
- Nes: Anion Transmembrane Transporter Activity (enriched in treated NSCs): 1.216
- Nes: Atp Binding (enriched in treated NSCs): 0.8813
- Nes: Calmodulin Binding (enriched in treated NSCs): 0.7204
- Nes: Carbon Oxygen Lyase Activity (enriched in treated NSCs): 0.4048
- Nes: Cation Channel Activity (enriched in treated NSCs): 0.9023
- Nes: Cation Transmembrane Transporter Activity (enriched in treated NSCs): 1.013
- Nes: Cysteine Type Endopeptidase Activity (enriched in treated NSCs): 1.621
- Nes: Cysteine Type Peptidase Activity (enriched in treated NSCs): 1.575
- Nes: Deoxyribonuclease Activity (enriched in treated NSCs): 1.357
- Nes: Endonuclease Activity (enriched in treated NSCs): 0.5289
